Assay results published in patent publication US20040167192A1, “Methods of treating conditions associated with an Edg-7 receptor” (priority 2003, published 2004).

Assays:
human Edg 7 receptors = target: T1, human Edg 7 receptors (Homo sapiens, UniProt Q9UBY5); assay: Intracellular calcium mobilization (FLIPR) in HTC cells expressing Edg-7; format: cell-based
T1 construct: expressed in transfected cells; host or cells: HTC rat hepatoma cells
T1 sequence (Q9UBY5 1-353): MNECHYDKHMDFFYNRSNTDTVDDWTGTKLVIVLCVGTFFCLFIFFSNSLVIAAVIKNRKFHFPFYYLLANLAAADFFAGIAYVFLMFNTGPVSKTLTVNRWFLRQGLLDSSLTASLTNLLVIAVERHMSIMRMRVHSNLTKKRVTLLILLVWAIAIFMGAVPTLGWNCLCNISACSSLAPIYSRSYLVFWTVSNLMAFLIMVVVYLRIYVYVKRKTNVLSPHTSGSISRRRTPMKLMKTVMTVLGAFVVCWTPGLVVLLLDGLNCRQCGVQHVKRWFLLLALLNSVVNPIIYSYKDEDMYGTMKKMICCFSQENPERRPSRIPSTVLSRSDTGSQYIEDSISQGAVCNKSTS
Experimental: (§1) The compounds were tested in HTC cells expressing human Edg 7 receptors. […] The compounds are tested in this recombinant system first, and subsequently tested in cell lines expressing Edg-7 (in addition to other Edg receptors).
as §1, with “receptors). […] The calcium mobilization assays were conducted as described in Section 6.6 (Example 6).” for “receptors).”
LPA receptors such as Edg-7, couple to calcium effector pathways, and result in increases in intracellular calcium following receptor activation (An, 1998, J. Cell. Biochem Supp. 30-31:147-157). This biological response lends itself to a very efficient, high-throughput screen using a Fluorescence Imaging Plate Reader (FLIPR; Molecular Devices, Sunnyvale, Calif.). The FLIPR system is a real-time, cell-based assay system with continuous fluorescence detection using a cooled CCD camera. The FLIPR system was used to developing an Edg-7 receptor screen. Rat hepatoma cells stably expressing Edg-7 receptor were plated on 384-well plates and loaded with a calcium dye loading kit (Molecular Devices, Sunnyvale, Calif.) for 1 hour at room temperature. Cells were then placed on the FLIPR^384 (Molecular Devices, Sunnyvale, Calif.) and excited by an argon laser at 488 nm. The data for the entire 384-well plate was updated every second. An integrated robotic pipettor allowed for simultaneous compound addition into each individual well in the plate.

Edg-5 = target: T2, Edg-5 (Homo sapiens, UniProt O95136); assay: Intracellular calcium mobilization (FLIPR) in HTC cells expressing Edg-5; format: cell-based
T2 construct: expressed in transfected cells; host or cells: HTC rat hepatoma cells

Edg-3 = target: T3, Edg-3 (Homo sapiens, UniProt Q99500); assay: Intracellular calcium mobilization (FLIPR) in HTC cells expressing Edg-3; format: cell-based
T3 construct: expressed in transfected cells; host or cells: HTC rat hepatoma cells

Edg-2 = target: T4, Edg-2 (Homo sapiens, UniProt Q92633); assay: Intracellular calcium mobilization (FLIPR) in HTC cells expressing Edg-2; format: cell-based
T4 construct: expressed in transfected cells; host or cells: HTC rat hepatoma cells

Edg-6 = target: T5, Edg-6 (Homo sapiens, UniProt O95977); assay: Intracellular calcium mobilization (FLIPR) in HTC cells expressing Edg-6; format: cell-based
T5 construct: expressed in transfected cells; host or cells: HTC rat hepatoma cells
T5 sequence (O95977 1-384): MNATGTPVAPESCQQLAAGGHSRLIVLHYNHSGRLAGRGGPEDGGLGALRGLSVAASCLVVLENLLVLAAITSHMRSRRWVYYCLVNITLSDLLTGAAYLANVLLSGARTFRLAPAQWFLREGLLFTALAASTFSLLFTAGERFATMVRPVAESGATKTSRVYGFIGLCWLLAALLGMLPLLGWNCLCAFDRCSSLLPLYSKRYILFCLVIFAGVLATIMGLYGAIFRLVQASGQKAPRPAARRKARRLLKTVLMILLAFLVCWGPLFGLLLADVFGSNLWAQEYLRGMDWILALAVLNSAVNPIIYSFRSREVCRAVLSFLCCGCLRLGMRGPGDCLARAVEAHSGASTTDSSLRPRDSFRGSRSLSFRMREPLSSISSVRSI

Edg-8 = target: T6, Edg-8 (Homo sapiens, UniProt Q9H228); assay: Intracellular calcium mobilization (FLIPR) in HTC cells expressing Edg-8; format: cell-based
T6 construct: expressed in transfected cells; host or cells: HTC rat hepatoma cells

Edg-1 = target: T7, Edg-1 (Homo sapiens, UniProt P21453); assay: Intracellular calcium mobilization (FLIPR) in HTC cells expressing Edg-1; format: cell-based
T7 construct: expressed in transfected cells; host or cells: HTC rat hepatoma cells

Edg-4 = target: T8, Edg-4 (Homo sapiens, UniProt Q9HBW0); assay: Intracellular calcium mobilization (FLIPR) in HTC cells expressing Edg-4; format: cell-based
T8 construct: expressed in transfected cells; host or cells: HTC rat hepatoma cells

untransfected HTC cells = assay: Intracellular calcium mobilization (FLIPR) in untransfected HTC cells; format: cell-based, rat; settings: concentrations as high as 25 μM
[1] = HTC cells expressing human Edg 7 receptors
[2] = concentrations as high as 20 μM
[3] = concentrations as high as 25 μM

T8 sequence (Q9HBW0 whole entry): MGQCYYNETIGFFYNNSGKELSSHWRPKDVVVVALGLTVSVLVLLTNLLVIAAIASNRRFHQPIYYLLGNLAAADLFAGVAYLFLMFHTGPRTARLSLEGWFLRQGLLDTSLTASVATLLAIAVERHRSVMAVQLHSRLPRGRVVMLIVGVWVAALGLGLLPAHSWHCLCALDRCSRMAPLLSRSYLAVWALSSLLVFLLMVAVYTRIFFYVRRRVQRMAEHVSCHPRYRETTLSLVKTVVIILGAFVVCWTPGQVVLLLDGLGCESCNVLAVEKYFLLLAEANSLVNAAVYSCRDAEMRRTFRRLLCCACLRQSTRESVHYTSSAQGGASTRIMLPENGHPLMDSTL
T7 sequence (P21453 whole entry): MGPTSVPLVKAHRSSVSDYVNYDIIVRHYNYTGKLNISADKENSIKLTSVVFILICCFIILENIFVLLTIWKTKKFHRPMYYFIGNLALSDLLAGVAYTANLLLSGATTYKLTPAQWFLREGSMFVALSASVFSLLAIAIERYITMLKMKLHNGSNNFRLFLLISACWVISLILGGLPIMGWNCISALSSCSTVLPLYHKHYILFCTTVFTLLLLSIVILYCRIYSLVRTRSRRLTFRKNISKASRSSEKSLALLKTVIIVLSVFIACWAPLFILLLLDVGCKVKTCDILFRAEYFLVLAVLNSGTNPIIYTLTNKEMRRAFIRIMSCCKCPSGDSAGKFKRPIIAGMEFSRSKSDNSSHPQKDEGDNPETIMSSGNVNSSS
T2 sequence (O95136 whole entry): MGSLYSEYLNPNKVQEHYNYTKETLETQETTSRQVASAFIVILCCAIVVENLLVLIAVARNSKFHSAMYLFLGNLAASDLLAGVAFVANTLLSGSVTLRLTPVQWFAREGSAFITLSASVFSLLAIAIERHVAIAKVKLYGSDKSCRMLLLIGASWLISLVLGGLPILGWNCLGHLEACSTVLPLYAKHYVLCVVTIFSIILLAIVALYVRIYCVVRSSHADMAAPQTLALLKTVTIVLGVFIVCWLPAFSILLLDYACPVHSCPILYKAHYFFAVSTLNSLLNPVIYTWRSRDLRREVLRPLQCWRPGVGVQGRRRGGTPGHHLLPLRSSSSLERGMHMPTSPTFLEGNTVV
T4 sequence (Q92633 whole entry): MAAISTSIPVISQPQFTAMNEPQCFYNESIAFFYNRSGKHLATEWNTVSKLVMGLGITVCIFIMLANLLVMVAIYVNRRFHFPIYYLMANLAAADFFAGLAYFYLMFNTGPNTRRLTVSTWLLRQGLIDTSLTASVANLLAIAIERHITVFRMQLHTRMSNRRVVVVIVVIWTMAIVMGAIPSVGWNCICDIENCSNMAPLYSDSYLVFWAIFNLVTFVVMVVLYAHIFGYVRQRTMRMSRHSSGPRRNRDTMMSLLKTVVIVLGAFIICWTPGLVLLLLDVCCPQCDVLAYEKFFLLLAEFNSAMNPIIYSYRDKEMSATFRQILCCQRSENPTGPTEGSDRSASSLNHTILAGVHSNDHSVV
T3 sequence (Q99500 whole entry): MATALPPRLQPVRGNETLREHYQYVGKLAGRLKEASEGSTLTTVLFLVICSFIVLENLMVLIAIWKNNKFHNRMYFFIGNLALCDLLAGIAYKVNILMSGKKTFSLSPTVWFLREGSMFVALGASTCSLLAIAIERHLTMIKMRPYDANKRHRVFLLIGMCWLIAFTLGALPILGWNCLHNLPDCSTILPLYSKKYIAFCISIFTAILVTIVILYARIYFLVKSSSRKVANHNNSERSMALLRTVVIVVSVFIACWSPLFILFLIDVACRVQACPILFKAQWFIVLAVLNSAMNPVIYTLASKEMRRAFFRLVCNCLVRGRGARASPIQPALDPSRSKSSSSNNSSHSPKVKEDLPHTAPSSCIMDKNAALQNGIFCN
T6 sequence (Q9H228 whole entry): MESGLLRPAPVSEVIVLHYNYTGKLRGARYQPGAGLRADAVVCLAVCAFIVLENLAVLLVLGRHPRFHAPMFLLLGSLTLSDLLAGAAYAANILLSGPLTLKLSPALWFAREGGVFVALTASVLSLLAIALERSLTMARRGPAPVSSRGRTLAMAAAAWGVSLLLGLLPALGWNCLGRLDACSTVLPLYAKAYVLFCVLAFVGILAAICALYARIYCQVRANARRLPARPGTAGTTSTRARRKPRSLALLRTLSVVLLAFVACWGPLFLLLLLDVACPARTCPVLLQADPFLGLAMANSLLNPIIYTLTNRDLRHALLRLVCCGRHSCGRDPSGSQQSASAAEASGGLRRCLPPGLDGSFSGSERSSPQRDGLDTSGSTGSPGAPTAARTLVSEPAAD

Row | Structure (SMILES) | inhibition of Edg-7 stimulated LPA responses (human Edg 7 receptors; [1]) | selectivity for Edg 7 (human Edg 7 receptors; tested on HTC cells expressing Edg-7) | inhibition of S1P-stimulated calcium increases (Edg-5; [2]) | inhibition of S1P-stimulated calcium increases (Edg-3; [2]) | inhibition of LPA-stimulated calcium increases (Edg-2; [2]) | inhibition of S1P-stimulated calcium increases (Edg-6; [2]) | inhibition of S1P-stimulated calcium increases (Edg-8; [2]) | inhibition of S1P-stimulated calcium increases (Edg-1; [2]) | inhibition of LPA-stimulated calcium increases (Edg-4; [2]) | stimulation of calcium increases (untransfected HTC cells) | activation of the Edg-7 receptor (human Edg 7 receptors; [1]) | stimulation of calcium increases (Edg-5; [3]) | stimulation of calcium increases (Edg-3; [3]) | stimulation of calcium increases (Edg-2; [3]) | stimulation of calcium increases (Edg-6; [3]) | stimulation of calcium increases (Edg-8; [3]) | stimulation of calcium increases (Edg-1; [3]) | melting point [°C] | stimulation of calcium increases (Edg-4; [3])
1 | O=C(O)COc1ccc(Br)cc1/C=C1\S/C(=N\c2ccc(Cl)cc2)NC1=O [Compound 107, 4-Bromo-2-[2-(4-chlorophenylamino)-4-oxothiazolidin-5-ylidenemethyl]phenoxyacetic acid] | demonstrate inhibition |  |  |  |  |  |  |  |  |  |  |  |  |  |  |  |  |  | 
2 | Cc1ccc(S(=O)(=O)N=C2NC(=O)/C(=C3/C(=O)Nc4ccccc43)S2)cc1 [Compound 105, 4-Methyl-N-[4-oxo-5-(2-oxo1,2-dihydroindol-3-ylidene)thiazolidin-2-ylidene]-benzenesulfonamide] | demonstrate inhibition | exhibited selectivity | did not inhibit | did not inhibit | did not inhibit | did not inhibit | did not inhibit | did not inhibit | did not inhibit |  |  |  |  |  |  |  |  |  | 
3 | CCCCCC(CCCCC)=N/N=C1\NC(=O)C(CC(=O)O)S1 (centres unmarked) [Compound 127, 4-Oxo-2-[(1-pentylhexylidene)hydrazono]thiazolidin-5-ylacetic acid] |  |  |  |  |  |  |  |  |  | did not stimulate calcium increases | specifically activate | did not stimulate calcium increases | did not stimulate calcium increases | did not stimulate calcium increases | did not stimulate calcium increases | did not stimulate calcium increases | did not stimulate calcium increases | 134 to 135 | did not stimulate calcium increases
